Here are results for four compounds from ChEMBL document CHEMBL1201862, “PubChem BioAssay data set” (2004).

Some test systems named below: NCI-H23; HCC 2998; OVCAR-5; M14; UACC-257; SF-295; A498; HCT-15; A549; MDA-N; HOP-92; SK-MEL-28; SNB-19; NCI/ADR-RES; MDA-MB-231; OVCAR-8; K562; 786-0; SK-MEL-2; SNB-75.
Holding throughout (assay): NCI anticancer screen, dose series, 48 h

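48-hour exposure; five concentrations; linearly interpolated endpoints. GI50 is the concentration that inhibits growth by half.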 The source made the active and inactive calls. Cut-off read from the data, not from the text of the source: active = GI50 up to about 1.1 µM and inactive = higher. Where only a bound is given, the exact number is not on record here.

As to `CN(C)Cc1cc(/N=N/c2ccccc2)ccc1O`, the GI50 in the assay with NCI-H23 is 98.9 µM (inactive); in the assay with HCC 2998, 34.1 µM (inactive); in the assay with OVCAR-5, 42.7 µM (inactive); in the assay on M14, 38.9 µM (inactive); with UACC-257, 25.6 µM (inactive); in the assay with SF-295, > 100 µM (inactive). Besides, the GI50 in the assay with A498 was 25.1 µM (inactive); with HCT-15, 43.1 µM; in the assay with A549 it was 92.9 µM (inactive); with MDA-N it was 44 µM (inactive); in the assay on HOP-92, 23.2 µM (inactive); with SK-MEL-28, 51.4 µM (inactive). Besides, the GI50 with SNB-19 was > 100 µM (inactive); with NCI/ADR-RES, 24.8 µM (inactive); in the assay on MDA-MB-231 it was 32.9 µM (inactive); in the assay on OVCAR-8, 76.4 µM (inactive); with K562, 24.2 µM (inactive); in the assay on 786-0, 65.5 µM (inactive). Further, the GI50 is 38.9 µM (inactive) in the assay on SK-MEL-2 and 10 µM (inactive) with SNB-75.

With `COC1=CC(=O)C(C2(OC(C)C)OC(=O)C(Cl)=C2Cl)=CC1=O` (stereo not given), the GI50 in the assay with NCI-H23, with HCC 2998, with OVCAR-5, with M14, in the assay with UACC-257 and with SF-295 was > 100 µM (inactive) in each case. Moreover, the GI50 with A498 is > 100 µM (inactive); in the assay with HCT-15 it was more than 100 µM; in the assay with A549, > 100 µM (inactive); with MDA-N it was 49.1 µM (inactive); in the assay on HOP-92 it was > 100 µM (inactive); with SK-MEL-28, > 100 µM (inactive). Also, the GI50 with SNB-19 was > 100 µM (inactive); in the assay on NCI/ADR-RES, > 100 µM (inactive); with MDA-MB-231, > 100 µM (inactive); in the assay with OVCAR-8, 24.9 µM (inactive); with K562, < 0.01 µM (active); in the assay on 786-0 it was 28.9 µM (inactive). Also, the GI50 in the assay with SK-MEL-2 is 29.4 µM (inactive); in the assay with SNB-75 it was > 100 µM (inactive).

In the case of `NCCCN1CCN(CC(=O)O)CCN(CCCN)CCN(CC(=O)O)CC1`, the GI50 is > 100 µM (inactive) with NCI-H23; 19.5 µM (inactive) in the assay on HCC 2998; > 38.9 µM (inactive) in the assay with OVCAR-5; 82.6 µM (inactive) in the assay on M14; > 100 µM (inactive) in the assay with UACC-257; > 93.3 µM (inactive) in the assay with SF-295. Also, the GI50 in the assay on A498 was > 100 µM (inactive); in the assay with HCT-15, 43.8 µM; in the assay on A549, 5.52 µM (inactive); in the assay with MDA-N, > 35.9 µM (inactive); in the assay on HOP-92, > 100 µM (inactive); in the assay with SK-MEL-28, > 100 µM (inactive). The GI50 in the assay on SNB-19 is > 100 µM (inactive); in the assay with NCI/ADR-RES, > 100 µM (inactive); in the assay with MDA-MB-231 it was > 100 µM (inactive); in the assay on OVCAR-8, > 86.1 µM (inactive); in the assay with K562, 6.67 µM (inactive); in the assay with 786-0 it was 6.93 µM (inactive). The figures for the GI50 with SK-MEL-2 and with SNB-75 were > 33.3 µM (inactive) and > 100 µM (inactive), respectively.

Regarding `Cc1ccc(-n2cc(-c3ccc(Cl)cc3)c3c(=N)n(N)cnc32)cc1`, the GI50 in the assay on NCI-H23 is 16.1 µM (inactive); in the assay with HCC 2998, 6.11 µM (inactive); with OVCAR-5, 14.7 µM (inactive); in the assay on M14, 5.75 µM (inactive); with UACC-257, 9.93 µM (inactive); in the assay with SF-295, 15.4 µM (inactive). In addition, the GI50 was 15.9 µM (inactive) in the assay on A498; 15.6 µM in the assay on HCT-15; 15.1 µM (inactive) with A549; 11.5 µM (inactive) with MDA-N; 9.95 µM (inactive) in the assay on HOP-92; 13.8 µM (inactive) in the assay with SK-MEL-28. Further, the GI50 was 11.8 µM (inactive) in the assay on SNB-19; 13.1 µM (inactive) with NCI/ADR-RES; 12.6 µM (inactive) in the assay with MDA-MB-231; 14.8 µM (inactive) with OVCAR-8; 6.46 µM (inactive) with K562; 11.9 µM (inactive) in the assay on 786-0. Besides, the GI50 with SK-MEL-2 is 13.6 µM (inactive); in the assay on SNB-75 it was 12.6 µM (inactive).
